The source of these data is patent publication US9850216B2 (H. LEE MOFFITT CANCER CENTER AND RESEARCH INSTITUTE, INC., priority 2013, dated 2017).

The target of this test is ACK1 (Homo sapiens, UniProt Q07912). Kind of test: ACK1 ELISA: phosphorylation of AKT-derived peptide. Type of test: biochemical.
The mark [1] stands for this setting: 10 μM, Table 1, replicate values listed.
Setting [2] is: 10 μM, Table 1, replicate values listed, read-out: % Inhibition at 10 μM (ELISA).
Where [3] appears, read: 10 μM, Table 1, replicate values listed, hydrochloride.
Where [4] appears, read: 10 μM, Table 2, library 9, read-out: % Inhibition @ 10 μM (ELISA).
[5] abbreviates: 10 μM, read-out: ACK1 inhibition at 10 μM (ELISA).

The structures appear in SMILES notation. “And” between values parts separate entries of the source, which are not always exact repeats. Equal values may be shown once. Read-outs that look alike come from different tables or passages of the source.

Chain of ACK1 (Q07912 whole entry): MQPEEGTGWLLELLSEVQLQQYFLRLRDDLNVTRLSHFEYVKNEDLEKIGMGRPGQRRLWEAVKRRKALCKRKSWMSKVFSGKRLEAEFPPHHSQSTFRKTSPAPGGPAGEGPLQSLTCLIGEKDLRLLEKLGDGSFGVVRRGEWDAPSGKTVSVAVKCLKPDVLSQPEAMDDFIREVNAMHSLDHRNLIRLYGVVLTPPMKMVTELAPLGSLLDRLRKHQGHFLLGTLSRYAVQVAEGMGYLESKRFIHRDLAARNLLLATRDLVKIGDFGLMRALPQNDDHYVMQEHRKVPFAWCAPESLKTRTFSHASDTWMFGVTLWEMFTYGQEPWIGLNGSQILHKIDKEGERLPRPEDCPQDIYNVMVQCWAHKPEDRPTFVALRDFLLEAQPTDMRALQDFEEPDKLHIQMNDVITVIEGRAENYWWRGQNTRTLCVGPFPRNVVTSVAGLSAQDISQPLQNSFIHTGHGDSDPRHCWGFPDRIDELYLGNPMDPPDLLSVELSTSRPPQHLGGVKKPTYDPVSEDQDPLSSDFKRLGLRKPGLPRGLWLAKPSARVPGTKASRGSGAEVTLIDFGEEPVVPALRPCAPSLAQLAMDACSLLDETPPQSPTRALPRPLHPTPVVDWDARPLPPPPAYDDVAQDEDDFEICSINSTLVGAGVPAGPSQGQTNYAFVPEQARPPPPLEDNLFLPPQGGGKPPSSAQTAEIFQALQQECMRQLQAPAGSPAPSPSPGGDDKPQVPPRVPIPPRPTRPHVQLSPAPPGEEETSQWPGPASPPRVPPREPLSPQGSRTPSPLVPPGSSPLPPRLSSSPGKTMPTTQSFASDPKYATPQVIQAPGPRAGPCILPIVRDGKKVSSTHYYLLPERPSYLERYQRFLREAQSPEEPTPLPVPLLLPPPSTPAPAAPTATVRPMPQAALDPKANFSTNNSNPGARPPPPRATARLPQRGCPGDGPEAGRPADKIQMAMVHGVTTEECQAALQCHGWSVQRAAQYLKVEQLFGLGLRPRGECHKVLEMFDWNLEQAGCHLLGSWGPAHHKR

As for `Cl.O=C(O)CCc1ccc(Nc2ncc(Cl)c(NC[C@@H]3CCCO3)n2)cc1` [NT1-015, (S)-3-(4-(5-Chloro-4-((tetrahydrofuran-2-yl)methylamino)pyrimidin-2-ylamino)phenyl)propanoic acid], under setting [1], the “% Inhibition at 10 μM (ELISA)” value turned out to be 72%. The inhibition at 10 µM under setting [2] came out at 70%.

In the case of `O=C(O)C1CCN(c2ccc(Nc3ncc(Br)c(NCC4CCCO4)n3)cc2)CC1` (stereo not shown), the “% Inhibition at 10 μM (ELISA)” value under setting [1] amounted to 84%. In addition, the inhibition at 10 µM (read-out: % Inhibition at 10 μM (ELISA), 10 μM, Table 1, replicate values listed) was found to be 85%.

Regarding `Cl.O=C(O)Cc1ccc(Nc2ncc(Cl)c(NC[C@H]3CCCO3)n2)cc1` [NT1-012, (R)-2-(4-(5-Chloro-4-((tetrahydrofuran-2-yl)methylamino)pyrimidin-2-ylamino)phenyl)acetic acid], the “% Inhibition at 10 μM (ELISA)” value under setting [1] is reported as 74%. Further, under setting [2], the inhibition at 10 µM came out at 68%.

With `Cl.O=C(O)Cc1ccc(Nc2ncc(Cl)c(NC[C@@H]3CCCO3)n2)cc1` [NT1-013, (S)-2-(4-(5-Chloro-4-((tetrahydrofuran-2-yl)methylamino)pyrimidin-2-ylamino)phenyl)acetic acid], under setting [1], the “% Inhibition at 10 μM (ELISA)” value is 73% and 46%.

For the molecule `Clc1cnc(Nc2ccc(N3CCNCC3)cc2)nc1NCC1CCCO1` (stereo not shown) [MH1-007-3, 5-chloro-N2-(4-(piperazin-1-yl)phenyl)-N4-((tetrahydrofuran-2-yl)methyl)pyrimidine-2,4-diamine], the “% Inhibition at 10 μM (ELISA)” value under setting [1] was 73% and 78% (2×). Also, the inhibition at 10 µM under setting [2] worked out at 91%.

Regarding `O=C(O)CCC(=O)N1CCN(c2ccc(Nc3ncc(Br)c(NCC4CCCO4)n3)cc2)CC1` (stereo not shown) [YL9-168, 4-(4-(4-(5-Bromo-4-((tetrahydrofuran-2-yl)methylamino)pyrimidin-2-ylamino)phenyl)piperazin-1-yl)-4-oxobutanoic acid], the “% Inhibition at 10 μM (ELISA)” value under setting [1] was found to be 90%. Also, the inhibition at 10 µM under setting [2] came out at 94%.

`Brc1cnc(Nc2ccc(C3CCNCC3)cc2)nc1NCC1CCCO1.Cl` (stereo not shown) [DZ1-088, 5-bromo-N2-(4-(piperidin-4-yl)phenyl)-N4-((tetrahydrofuran-2-yl)methyl)pyrimidine-2,4-diamine]: the “% Inhibition at 10 μM (ELISA)” value under setting [1] turned out to be 85%. Moreover, the inhibition at 10 µM under setting [2] was 84%.

`Cl.O=C(O)CCc1ccc(Nc2ncc(Cl)c(NC[C@H]3CCCO3)n2)cc1` [NT1-014, (R)-3-(4-(5-Chloro-4-((tetrahydrofuran-2-yl)methylamino)pyrimidin-2-ylamino)phenyl)propanoic acid]: the “% Inhibition at 10 μM (ELISA)” value under setting [1] came to 75%. Further, under setting [2], the inhibition at 10 µM came out at 61%.

In the case of `Cl.O=C(Nc1c(F)cccc1Cl)c1cnc(Nc2ccc(O)c(F)c2)nc1NCC1CCCO1` (stereo not shown) [YL7-170-2, N-(2-chloro-6-fluorophenyl)-2-(3-fluoro-4-hydroxyphenylamino)-4-((tetrahydrofuran-2-yl)methylamino)pyrimidine-5-carboxamide hydrochloride], the “% Inhibition at 10 μM (ELISA)” value under setting [3] was 68% and 67%. The inhibition at 10 µM under setting [2] is 65%.

`Brc1cnc(Nc2ccc(N3CCNCC3)cc2)nc1NCC1CCCO1` (stereo not shown) [Compound 15]: the inhibition at 10 µM under setting [4] amounted to 65%.

`Cc1cnc(Nc2ccc(O)c(F)c2)nc1NCC1CCCO1.Cl` (stereo not shown) [YL7-170-1, 2-Fluoro-4-(5-methyl-4-((tetrahydrofuran-2-yl)methylamino)pyrimidin-2-ylamino)phenol hydrochloride]: the “% Inhibition at 10 μM (ELISA)” value under setting [3] was 51% and 29% and 47%.

Regarding `Oc1ccc(Nc2ncc(F)c(NCC3CCCO3)n2)cc1` (stereo not shown) [DZ1-112, 4-(5-fluoro-4-((tetrahydrofuran-2-yl)methylamino)pyrimidin-2-ylamino)phenol], the “% Inhibition at 10 μM (ELISA)” value under setting [1] is 33%. Further, the inhibition at 10 µM under setting [2] stood at 53%.

`Cl.Clc1cnc(Nc2ccc(C3CCNCC3)cc2)nc1NC[C@@H]1CCCO1` [NT1-011, (S)-5-Chloro-N^2-(4-(piperidin-4-yl)phenyl)-N^4-((tetrahydrofuran-2-yl)methyl)pyrimidine-2,4-diamine]: the “% Inhibition at 10 μM (ELISA)” value under setting [1] was found to be 76%. In addition, under setting [2], the inhibition at 10 µM was 77%.

As for `Cl.Oc1ccc(Nc2ncc(F)c(NCC3CCCO3)n2)cc1F` (stereo not shown) [YL7-164, 2-Fluoro-4-(5-fluoro-4-((tetrahydrofuran-2-yl)methylamino)pyrimidin-2-ylamino)phenol hydrochloride], under setting [3], the “% Inhibition at 10 μM (ELISA)” value is 46% and 55%. The inhibition at 10 µM under setting [2] was found to be 37%.

On to `COc1ccc(Nc2ncc(Br)c(NCC3CCCO3)n2)cc1.Cl` (stereo not shown) [SK1-022, 5-Bromo-N2-(4-methoxyphenyl)-N4-((tetrahydrofuran-2-yl)methyl)pyrimidine-2,4-diamine], for which the “% Inhibition at 10 μM (ELISA)” value under setting [1] was found to be 67%. For the same molecule, the inhibition at 10 µM under setting [2] was 68%.

With `Cl.O=C(Nc1c(F)cccc1Cl)c1cnc(Nc2ccc(N3CCOCC3)cc2)nc1NCC1CCCO1` (stereo not shown) [DZ1-092, N-(2-chloro-6-fluorophenyl)-2-(4-morpholinophenylamino)-4-((tetrahydrofuran-2-yl)methylamino)pyrimidine-5-carboxamide], the “% Inhibition at 10 μM (ELISA)” value under setting [1] came out at 88%. In addition, the inhibition at 10 µM under setting [2] amounted to 77%.

In the case of `CN1CCN(c2ccc(Nc3ncc(Br)c(NCC4CCCO4)n3)cc2)CC1` (stereo not shown) [Compound 18], the inhibition at 10 µM was found to be 67 ± 0.2% under setting [4] and 67% under setting [5].

Consider `Clc1cnc(Nc2ccc(CN3CCCCC3)cc2)nc1NCC1CCCO1` (stereo not shown) [MH1-035-3, 5-chloro-N2-(4-(piperidin-1-ylmethyl)phenyl)-N4-((tetrahydrofuran-2-yl)methyl)pyrimidine-2,4-diamine], for which the “% Inhibition at 10 μM (ELISA)” value under setting [1] was 72%. The inhibition at 10 µM under setting [2] was 77%.

With `CN(C)CCNC(=O)CCc1ccc(Nc2ncc(Cl)c(NCC3CCCO3)n2)cc1.Cl` (stereo not shown) [NT1-028, 3-(4-(5-Chloro-4-((tetrahydrofuran-2-yl)methylamino)pyrimidin-2-ylamino)phenyl)-N-(2-(dimethylamino)ethyl)propanamide], the “% Inhibition at 10 μM (ELISA)” value under setting [1] turned out to be 74%. Under setting [2], the inhibition at 10 µM stood at 62%.

In the case of `Cl.O=C(O)CCc1ccc(Nc2ncc(Br)c(NCC3CCCO3)n2)cc1` (stereo not shown) [NT1-023, 3-(4-(5-Bromo-4-((tetrahydrofuran-2-yl)methylamino)pyrimidin-2-ylamino)phenyl)propanoic acid], the “% Inhibition at 10 μM (ELISA)” value under setting [1] was 75%. The inhibition at 10 µM under setting [2] worked out at 74%.

`Brc1cnc(Nc2ccc(N3CCOCC3)cc2)nc1NCC1CCCO1` (stereo not shown) [Compound 9h]: under setting [4], the inhibition at 10 µM came out at 89 ± 1.4%.

For the molecule `CCNC(=O)C1CCN(c2ccc(Nc3ncc(Cl)c(NC[C@@H]4CCCO4)n3)cc2)CC1` [SG1-083], the “% Inhibition at 10 μM (ELISA)” value under setting [1] is 61%. Further, the inhibition at 10 µM under setting [2] worked out at 73%.

With `CCOC(=O)C1CCN(c2ccc(Nc3ncc(Br)c(NCC4CCCO4)n3)cc2)CC1.Cl` (stereo not shown) [DZ1-093, Ethyl 1-(4-(5-bromo-4-((tetrahydrofuran-2-yl)methylamino)pyrimidin-2-ylamino)phenyl)piperidine-4-carboxylate], the “% Inhibition at 10 μM (ELISA)” value under setting [1] worked out at 65%. Moreover, under setting [2], the inhibition at 10 µM is 64%.

Consider `Cl.O=C(O)Cc1ccc(Nc2ncc(Cl)c(NCC3CCCO3)n2)cc1` (stereo not shown) [NT1-006, 2-(4-(5-Chloro-4-((tetrahydrofuran-2-yl)methylamino)pyrimidin-2-ylamino)phenyl)acetic acid], for which the “% Inhibition at 10 μM (ELISA)” value under setting [1] was 81%. The inhibition at 10 µM under setting [2] came out at 72%.

`Cl.Clc1cnc(Nc2ccc(C3CCNCC3)cc2)nc1NC[C@H]1CCCO1` [NT1-010, (R)-5-Chloro-N^2-(4-(piperidin-4-yl)phenyl)-N^4-((tetrahydrofuran-2-yl)methyl)pyrimidine-2,4-diamine]: the “% Inhibition at 10 μM (ELISA)” value under setting [1] is reported as 76%. For the same molecule, under setting [2], the inhibition at 10 µM came to 67%.

For the molecule `O=C(O)C1CCN(c2ccc(Nc3ncc(Cl)c(NCC4CCCO4)n3)cc2)CC1` (stereo not shown) [YL8-050, 1-(4-(5-Chloro-4-((tetrahydrofuran-2-yl)methylamino)pyrimidin-2-ylamino)phenyl)piperidine-4-carboxylic acid], under setting [1], the “% Inhibition at 10 μM (ELISA)” value is given as 96%. Also, the inhibition at 10 µM under setting [2] came to 87%.

For `CN1CCN(c2ccc(Nc3nccc(NCC4CCCO4)n3)cc2)CC1` (stereo not shown) [DZ1-104], the “% Inhibition at 10 μM (ELISA)” value under setting [1] came out at 13%. For the same molecule, the inhibition at 10 µM under setting [2] stood at 19%.

In the case of `COc1ccc(Nc2ncc(C(=O)Nc3c(F)cccc3Cl)c(NCC3CCCO3)n2)cc1` (stereo not shown) [YL7-104-1, N-(2-chloro-6-fluorophenyl)-2-(4-methoxyphenylamino)-4-((tetrahydrofuran-2-yl)methylamino)pyrimidine-5-carboxamide], under setting [1], the “% Inhibition at 10 μM (ELISA)” value was 76% and 61% and 37% and 27%.

Regarding `CCOC(=O)C1CCN(c2ccc(Nc3ncc(C(=O)Nc4c(F)cccc4Cl)c(NCC4CCCO4)n3)cc2)CC1.Cl` (stereo not shown) [DZ1-094, Ethyl 1-(4-(5-(2-chloro-6-fluorophenylcarbamoyl)-4-((tetrahydrofuran-2-yl)methylamino)pyrimidin-2-ylamino)phenyl)piperidine-4-carboxylate], the “% Inhibition at 10 μM (ELISA)” value under setting [1] was 73%. For the same molecule, under setting [2], the inhibition at 10 µM was 61%.

With `CCOC(=O)C1CCN(c2ccc(Nc3ncc(Cl)c(NC[C@H]4CCCO4)n3)cc2)CC1.Cl` [DZ1-070, (R)-ethyl1-(4-(5-chloro-4-((tetrahydrofuran-2-yl)methylamino)pyrimidin-2-ylamino)phenyl)piperidine-4-carboxylate], the “% Inhibition at 10 μM (ELISA)” value under setting [1] is on record as 65%. In addition, under setting [2], the inhibition at 10 µM was 52%.

In the case of `COc1cc(N2CCOCC2)ccc1Nc1ncc(Cl)c(NCC2CCCO2)n1` (stereo not shown) [MH1-030-4, 5-chloro-N2-(2-methoxy-4-morpholinophenyl)-N4-((tetrahydrofuran-2-yl)methyl)pyrimidine-2,4-diamine], under setting [1], the “% Inhibition at 10 μM (ELISA)” value was 82%. Besides, under setting [2], the inhibition at 10 µM worked out at 88%.

In the case of `Clc1cnc(Nc2ccc(N3CCNCC3)cc2)nc1NCC1CCCO1` (stereo not shown) [Compound 14], the inhibition at 10 µM runs as follows: under setting [4], 66 ± 1.5%; under setting [5], 66%.

For `Cl.O=C(O)CCc1ccc(Nc2ncc(Cl)c(NCC3CCCO3)n2)cc1` (stereo not shown) [NT1-007, 3-(4-(5-Chloro-4-((tetrahydrofuran-2-yl)methylamino)pyrimidin-2-ylamino)phenyl)propanoic acid], the “% Inhibition at 10 μM (ELISA)” value under setting [1] came out at 73%. The inhibition at 10 µM under setting [2] worked out at 75%.

The term % Inhibition denotes the share of the control response that was lost under treatment. High values mean a strong effect, low ones a weak effect. One may read the inhibition as the relative decrease from the control value, in per cent.
